The source of these data is US20030086900A1, “Method of treatment using ligand-immunogen conjugates” (priority 2001, published 2003).

In this assay the test system is M109 cells. As to the kind of experiment: Survival of mice with M109 lung tumor implants, folate-MDP therapy. Conditions: female Balb/c mice, M109 cells i.p.; folate-MDP 15 nmoles/kg, IL-2 5,000 IU/dose, IFN-α 25,000 U/dose; injections on days 7, 8, 9, 11, 14. The class given is in vivo. The protocol: Female Balb/c mice were injected on day 0 with 5×10^5 M109 cells, a syngeneic lung cancer cell line that expresses high levels of the folate receptor. In an effort to reduce the time required to obtain long-term survival data, the tumor cells were implanted intraperitoneally close to the liver. Cancer loci were then allowed to attach and grow. The animals were then injected with PBS (control) or were co-injected with folate-muramyl dipeptide (MDP) (15 nmoles/kg), IL-2 (5,000 IU/dose), and IFN-α (25,000 U/dose) on days 7, 8, 9, 11, and 14 after tumor cell implantation. Folate was conjugated to MDP via a gamma carboxyl-linked ethylene diamine bridge. Additional animals were injected with 80 nmoles/kg MDP, 15 nmoles/kg folate-MDP, or 80 nmoles/kg MDP and IL-2 and IFN-α at the concentrations specified above. The efficacy of this immunotherapy was evaluated by monitoring survival as a function of time of folate-MDP treated mice compared to control animals.

On to folate-muramyl dipeptide [folate-MDP], for which the “effect on long-term survival of tumor-bearing mice” value is recorded as “negligible effect”.
